Values of other authors, collected in patent US20200253976A1, “Endothelial Facilitation in Neurodegerative Diseases by Cerebral Blood Flow Enhancement” (UNIVERSITY OF MASSACHUSETTS, priority 2017, published 2020).
Read-outs that look alike come from different tables or passages of the source.

Assays:
[1] = phase 2 study
NOS = details: mouse ovarian follicles; L-arginine omitted
eNOS = molecular target: T1, eNOS (Homo sapiens, UniProt P29474); details: endothelial dysfunction where l-arginine is rate-limiting
T1 sequence (P29474 1-1203): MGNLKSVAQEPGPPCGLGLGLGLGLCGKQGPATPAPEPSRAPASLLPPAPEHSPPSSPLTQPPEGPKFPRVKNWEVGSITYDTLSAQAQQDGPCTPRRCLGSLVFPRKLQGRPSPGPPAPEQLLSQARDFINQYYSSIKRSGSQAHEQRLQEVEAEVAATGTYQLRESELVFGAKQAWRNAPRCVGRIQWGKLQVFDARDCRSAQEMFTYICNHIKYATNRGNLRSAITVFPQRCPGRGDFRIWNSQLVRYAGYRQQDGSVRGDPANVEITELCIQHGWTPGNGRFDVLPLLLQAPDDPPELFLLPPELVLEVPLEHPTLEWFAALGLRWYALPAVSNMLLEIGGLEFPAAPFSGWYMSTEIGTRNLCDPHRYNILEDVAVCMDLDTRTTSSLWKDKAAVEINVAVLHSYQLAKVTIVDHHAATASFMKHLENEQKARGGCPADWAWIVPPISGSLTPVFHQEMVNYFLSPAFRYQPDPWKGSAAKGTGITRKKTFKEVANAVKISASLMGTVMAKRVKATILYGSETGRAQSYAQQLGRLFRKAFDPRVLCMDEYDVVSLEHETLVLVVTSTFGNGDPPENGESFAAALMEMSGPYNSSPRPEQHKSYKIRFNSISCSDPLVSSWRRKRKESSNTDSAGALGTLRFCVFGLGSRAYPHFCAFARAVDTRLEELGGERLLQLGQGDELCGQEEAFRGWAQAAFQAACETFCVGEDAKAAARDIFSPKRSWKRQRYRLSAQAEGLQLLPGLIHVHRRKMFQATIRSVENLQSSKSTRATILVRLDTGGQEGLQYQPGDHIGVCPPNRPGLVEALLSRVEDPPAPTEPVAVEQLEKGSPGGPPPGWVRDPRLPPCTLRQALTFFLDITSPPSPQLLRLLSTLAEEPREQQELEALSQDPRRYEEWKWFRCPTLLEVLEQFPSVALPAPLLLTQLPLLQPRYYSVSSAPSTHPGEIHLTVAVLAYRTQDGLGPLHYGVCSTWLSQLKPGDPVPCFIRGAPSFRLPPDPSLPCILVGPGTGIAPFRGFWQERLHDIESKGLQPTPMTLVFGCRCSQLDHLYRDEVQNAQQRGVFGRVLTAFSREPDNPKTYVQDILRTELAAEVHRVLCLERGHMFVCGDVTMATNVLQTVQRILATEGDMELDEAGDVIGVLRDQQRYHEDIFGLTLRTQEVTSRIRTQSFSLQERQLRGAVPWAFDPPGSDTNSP

[2] = in vivo
[3] = tested on: treated subjects with Alzheimer's disease; details: human trial in AD, stopped prematurely

NC(=O)[C@@H](CCC(F)(F)F)N(Cc1ccc(-c2ncon2)cc1F)S(=O)(=O)c1ccc(Cl)cc1 [Avagacestat]
cognitive benefit [1]: no cognitive benefit

NC(=O)NCCC[C@H](N)C(=O)O [L-citrulline]
compensation for L-arginine withdrawal (NOS phenotype) (NOS): partial compensation | eNOS activity on supplementation (eNOS): fully restored

NC(=NCCC[C@H](N)C(=O)O)NO [NG-hydroxy-L-arginine]
compensation for L-arginine withdrawal (NOS phenotype) (NOS): partial compensation

C[C@H](O)[C@H](O)[C@H]1CNc2nc(N)[nH]c(=O)c2N1 [Sapropterin, tetrahydrobiopterin]
abdominal pain, frequency (gastrointestinal side effect): 5% | diarrhea, frequency (gastrointestinal side effect): 8% | nausea, frequency (gastrointestinal side effect): 4% | vomiting, frequency (gastrointestinal side effect): 8% | headache, frequency (in vivo): 15% | nasal discharge, frequency (upper respiratory symptom): 11% | pain in throat, frequency (upper respiratory symptom): 10% | upper respiratory infection, frequency (upper respiratory symptom): 12-17%

C[C@@H](C(=O)O)c1ccc(-c2ccccc2)c(F)c1 [Tarenflurbil]
benefit in AD [2]: failed to produce any benefit

CC(C)[C@H](O)C(=O)N[C@@H](C)C(=O)N[C@@H]1C(=O)N(C)CCc2ccccc21 [semagacestat]
cognitive performance of treated subjects versus control / placebo [3]: significantly worse cognitive performance than control subjects | cognitive performance of treated subjects versus control / placebo ([3]; listed as Semagacestat): exacerbated cognitive decline compared with placebo

AN-1792: Abeta active immunization (Elan Pharmaceuticals, Inc.)
Aβ in the brain of treated subjects (patients with AD; active immunization): decreased Aβ markedly | progression of dementia (patients with AD; active immunization, even when the amyloid plaques had been removed): failed to decrease the progression of dementia | brain atrophy on quantitative imaging versus control subjects (patients with AD; treated subjects with immunological response and decreased amyloid burden): greater brain atrophy | autoimmune encephalopathy (patients with AD; trial stopped): several subjects developed an autoimmune encephalopathy
